What was measured:
Yeast = Yeast activity; format: cell-based
[1] = system: A549, PC3 and HCT116 cells; experiment: Cell Growth/Viability Assays (CellTiter-Glo); format: cell-based; conditions: Homo sapiens; 48 h incubation; cancer cells
Procedure: Cell Growth/Viability Assays. All assays were performed using at least three replicate wells for each compound concentration tested. Cells were seeded in 96-well white plates at the density of 1000 cells/well in 100 μL of the appropriate cell culture media. Adherent A549, PC3 and HCT116 cells were allowed to attach and grow for 24 h and then treated with 30 μL of the solution of a compound and incubated further for 48 h. After incubation, cell viability was determined using a luminescence-based commercial kit (CellTiter-Glo, Promega) and luminescence was analyzed using a Wallac Victor III plate reader. Compound concentration that gave 50% reduction in cell viability when compared with untreated control cells was calculated from sigmoidal plots of cell viability versus drug concentration. To measure cell growth inhibition, similar viability assays were performed twice: at 0 h and after 48 h incubation. And then change in number of viable cells was measured and calculated from sigmoidal plots.
Biological Activity—Using methods similar to that described above, the following compounds were tested.

[2] = system: HCT-116 colon cancer cells; conditions: HCT-116 cells; cited from earlier work
[3] = system: W303 strain of yeast S. cerevisiae; conditions: 11.2 mg per disk; cited from earlier work
[4] = system: human A549 non-small lung caner cells; conditions: cited from earlier work

Structure (SMILES)	Yeast: Active/Inactive (Yeast)	GI50 [1]	GI50 [2]	inhibition diameter per disk [3]	GI50 [4]
COC(=O)NC/C=C\c1nc(CC/C=C\C(=O)O[C@H]2CC3CC(=O)O[C@@H](CCCC(C)C)CC4CCCC(C[C@@H](OC)CC(C2)O3)O4)co1 (mixture of isomers) [racemic JJ-2-96]	Yeast: Active	1 to 10 nM			
CCCCC[C@H]1CC2CCCC(C[C@@H](OC)CC3C[C@@H](OC(=O)/C=C\CCc4coc(/C=C\CNC(=O)OC)n4)CC(CC(=O)O1)O3)O2 (mixture of isomers) [racemic JJ-2-173]	Yeast: Active	1 to 10 nM			
COC(=O)NC/C=C\c1nc(CC/C=C\C(=O)OC2CC3CC(=O)O[C@H](/C=C/CC(C)C)C[C@H]4CCC(C)C(C[C@H](OC)CC(C2)O3)O4)co1 (some centres unmarked) [Leucascandrolide A]			0.87 nM	33 mm	0.93 nM
C#CCCCCCCCC[C@H]1CC2CCCC(C[C@@H](OC)CC3C[C@@H](OC(=O)/C=C\CCc4coc(/C=C\CNC(=O)OC)n4)CC(CC(=O)O1)O3)O2 (mixture of isomers) [racemic JJ-2-286]	Yeast: Active	1 to 10 nM			
COC(=O)NC/C=C\c1nc(CC/C=C\C(=O)O[C@H]2CC3CC(=O)O[C@@H](/C=C/CC(C)C)CC4CCCC(C[C@@H](OC)CC(C2)O3)O4)co1 (single isomer, unassigned; (+)) [(+)-JJ-2-37]	Yeas: Active	1 to 10 nM			
COC(=O)NC/C=C\c1nc(CC/C=C\C(=O)O[C@H]2CC3CC(=O)O[C@@H](CCCCCCCCc4cn(CCCNC(=O)OC(C)(C)C)nn4)CC4CCCC(C[C@@H](OC)CC(C2)O3)O4)co1 (mixture of isomers) [racemic JJ-2-288]	Yeast: Active	10 to 100 nM			
COC(=O)NC/C=C\c1nc(CC/C=C\C(=O)O[C@@H]2CC3CC(=O)O[C@H](/C=C/CC(C)C)CC4CCCC(C[C@H](OC)CC(C2)O3)O4)co1 (some centres unmarked)	Yeast: Active	10 to 100 nM			
COC(=O)NC/C=C\c1nc(CC/C=C\C(=O)O[C@H]2CC3CC(=O)O[C@@H](CCCCCO)CC4CCCC(C[C@@H](OC)CC(C2)O3)O4)co1 (mixture of isomers) [racemic JJ-2-194]	Yeast: Inactive	10 to 100 nM			
